System: Vasopressin V2
Test: Vasopressin V2 agonist effects of test compounds in normal conscious water-loaded rats
Format: in vivo
Conditions: Sprague-Dawley (CD) rats, oral 10 mg/kg, urine collected for four hours; for Osmolality (% Increase): change in osmolality as percent of control; for Urine Volume (% decrease): vs. control
Method: Vasopressin V2 Agonist Effects of Test Compounds in Normal Conscious Water-Loaded Rats:
On the day of test, rats were placed individually into metabolic cages equipped with devices to separate the feces from the urine and containers for collection of urine. Test compound or reference agent was given at an oral dose of 10 mg/kg in a volume of 10 ml /kg. […] Thirty minutes after dosing the test compound, rats were gavaged with water at 30 ml /kg into the stomach using a feeding needle. During the test, rats were not provided with water or food. Urine was collected for four hours after dosing of the test compound. At the end of four hours, urine volume was measured. […] Determinations of Na^+, K^+ and Cl^- ion were carried out using ion specific electrodes in a Beckman SYNCHRON EL-ISE Electrolyte System analyzer. […] In the screening test, two rats were used for each compound. If the difference in the urine volume of the two rats was greater than 50%, a third rat was used.

Compound	Osmolality (% Increase)	Urine Volume (% decrease)
Cc1n[nH]c(-c2ccc(C(=O)N3Cc4cccn4Cc4ccccc43)cc2)n1 [Example 50, [4-(5-Methyl-2H-[1,2,4]triazol-3-yl)-phenyl]-(5H,11H-pyrrolo[2,1-c][1,4]-benzodiazepin-10-yl)-methanone]	223%	53%
Cc1nc(-c2ccc(C(=O)N3Cc4cccn4Cc4ccccc43)cc2)n(C)n1 [Example 51, [4-(2,5-Dimethyl-2H-[1,2,4]triazol-3-yl)-phenyl]-(5H,11H-pyrrolo[2,1-c]-[1,4]benzodiazepin-10-yl)-methanone]	–	72%
Cc1noc(-c2ccc(C(=O)N3Cc4cccn4Cc4ccccc43)cc2)n1 [Example 52, [4-(3-Methyl[1,2,4]oxadiazol-5-yl)-phenyl]-(5H,11H-pyrrolo-[2,1-c][1,4]-benzodiazepin-10-yl)-methanone]	261%	66%
Cn1cc(-c2ccc(C(=O)N3Cc4cccn4Cc4ccccc43)cc2)cn1 [Example 55, [4-(1-Methyl-1H-pyrazol-4-yl)-phenyl]-(5H,11H-pyrrolo[2,1-c][1,4]-benzodiazepin-10-yl)-methanone]	164%	80%
Cn1cc(-c2ccc(C(=O)N3Cc4cccn4Cc4ccccc43)cn2)cn1 [Example 57, [6-(1-Methyl-1H-pyrazol-4-yl)-pyridin-3-yl]-(5H,11H-pyrrolo[2,1-c][1,4]-benzodiazepin-10-yl)-methanone]	288%	77%
O=C(c1ccc(-n2cccn2)cc1)N1Cc2cccn2Cc2ccccc21 [Example 58, [4-(Pyrazol-1-yl)-phenyl]-(5H,11H-pyrrolo[2,1-c][1,4]benzodiazepin-10-yl)-methanone]	324%	49%
Cc1ccn(-c2ccc(C(=O)N3Cc4cccn4Cc4ccccc43)cc2)n1 [Example 59, [4-(3-Methyl-pyrazol-1-yl)-phenyl]-(5H,11H-pyrrolo[2,1-c][1,4]-benzodiazepin-10-yl)-methanone]	607%	80%
Cc1cnn(-c2ccc(C(=O)N3Cc4cccn4Cc4ccccc43)cc2)c1 [Example 60, [4-(4-Methyl-pyrazol-1-yl)-phenyl]-(5H,11H-pyrrolo[2,1-c][1,4]-benzodiazepin-10-yl)-methanone]	165%	54%
Cc1cc(C)n(-c2ccc(C(=O)N3Cc4cccn4Cc4ccccc43)cc2)n1 [Example 61, [4-(3,5-Dimethyl-pyrazol-1-yl)-phenyl]-(5H,11H-pyrrolo[2,1-c][1,4]-benzodiazepin-10-yl)-methanone]	245%	59%
O=C(c1ccc(-n2ccc(C(F)(F)F)n2)cc1)N1Cc2cccn2Cc2ccccc21 [Example 62, (5H,11H-Pyrrolo[2,1-c][1,4]benzodiazepin-10-yl)-[4-(3-trifluoromethyl-pyrazol-1-yl)-phenyl]-methanone]	150%	22%
O=C(c1ccc(-n2ccnc2)cc1)N1Cc2cccn2Cc2ccccc21 [Example 63, [4-(Imidazol-1-yl)-phenyl]-(5H,11H-pyrrolo[2,1-c][1,4]benzodiazepin-10-yl)-methanone]	214%	27%
Cc1cn(-c2ccc(C(=O)N3Cc4cccn4Cc4ccccc43)cc2)cn1 [Example 64, [4-(4-Methyl-imidazol-1-yl)-phenyl]-(5H,11H-pyrrolo[2,1-c][1,4]-benzodiazepin-10-yl)-methanone]	349%	79%
Cn1ccc(-c2ccc(C(=O)N3Cc4cccn4Cc4ccccc43)c(Cl)c2)n1 [Example 71, [2-Chloro-4-(1-methyl-1H-pyrazol-3-yl)-phenyl]-(5H,11H-pyrrolo[2,1-c]-[1,4]benzodiazepine-10-yl)-methanone]	264%	84%
N#Cc1ccc(C(=O)N2Cc3cccn3Cc3ccccc32)c(Cl)c1 [Example 77, 3-Chloro-4-(5H,11H-pyrrolo[2,1-c][1,4]benzodiazepine-10-carbonyl)-benzonitrile]	90%	13%
O=C(O)c1ccc(C(=O)N2Cc3cccn3Cc3ccccc32)c(Cl)c1 [Example 78, 3-Chloro-4-(5H,11H-Pyrrolo[2,1-c][1,4]benzodiazepine-10-carbonyl)-benzoic acid]	115%	21%
NC(=O)c1ccc(C(=O)N2Cc3cccn3Cc3ccccc32)c(Cl)c1 [Example 79, 3-Chloro-4-(5H,11H-pyrrolo[2,1-c][1,4]benzodiazepine-10-carbonyl)-benzamide]	123%	38%

Compound	Osmolality (% Increase)	Urine Volume (% decrease)
Cc1n[nH]c(-c2ccc(C(=O)N3Cc4cccn4Cc4ccccc43)c(Cl)c2)n1 [Example 81, [2-Choro-4-(5-methyl-2H-[1,2,4]triazol-3-yl)phenyl]-(5H,11H-pyrrolo[2,1-c][1,4]benzodiazepine-10-carbonyl)-methanone]	490%	82%
O=C(c1ccc(-c2ncn[nH]2)cc1Cl)N1Cc2cccn2Cc2ccccc21 [Example 83, [2-Chloro-4-(2H-1,2,4-triazol-3-yl)-phenyl]-(5H,11H-pyrrolo[2,1-c][1,4]-benzodiazepin-10-yl)-methanone]	442%	85%
Cn1ncnc1-c1ccc(C(=O)N2Cc3cccn3Cc3ccccc32)c(Cl)c1 [Example 84, [2-Chloro-4-(2-methyl-2H-[1,2,4]triazol-3-yl)-phenyl]-(5H,11H-pyrrolo [2,1-c][1,4]benzodiazepin-10-carbonyl)-methanone]	291%	56%
Cc1nc(-c2ccc(C(=O)N3Cc4cccn4Cc4ccccc43)c(Cl)c2)n(C)n1 [Example 85, 4-[(2,5-Dimethyl-2H-[1,2,4]triazol-3-yl)-2-chloro-phenyl]-(5H,11H-pyrrolo[2,1-c][1,4]benzodiazepin-10-carbonyl)-methanone]	436%	76%
O=C(c1ccc(-c2nnn[nH]2)cc1Cl)N1Cc2cccn2Cc2ccccc21 [Example 86, [2-Chloro-4-(1H-tetrazol-5-yl)-phenyl]-(5H,11H-pyrrolo[2,1-c][1,4]benzodiazepin-10-yl)-methanone]	86%	5%
Cc1ccn(-c2ccc(C(=O)N3Cc4ccc(CN(C)C)n4Cc4ccccc43)c(Cl)c2)n1 [Example 87, [2-Chloro-4-(3-methyl-pyrazol-1-yl)-phenyl]-(3-dimethylaminomethyl-5H,11H-pyrrolo[2,1-c][1,4]benzodiazepin-10-yl)-methanone]	214%	71%
Cc1ccn(-c2ccc(C(=O)N3Cc4ccc(Br)n4Cc4ccccc43)c(Cl)c2)n1 [Example 88, (3-Bromo-5H,11H-pyrrolo[2,1-c][1,4]benzodiazepin-10-yl)-[2-chloro-4-(3-methyl-pyrazol-1-yl)-phenyl]-methanone]	226%	68%
Cc1ccn(-c2ccc(C(=O)N3Cc4cccn4Cc4ccccc43)c(Br)c2)n1 [Example 90]	413%	61%
O=C(c1ccc(F)cc1F)N1Cc2cccn2Cc2ccccc21 [Example 91, (2,4-Difluoro-phenyl)-(5H,11H-pyrrolo[2,1-c][1,4]benzodiazepin-10-yl)-methanone]	69%	22%
Cc1ccn(-c2ccc(C(=O)N3Cc4cccn4Cc4ccccc43)c(F)c2)n1 [Example 92, [2-Fluoro-4-(3-methyl-pyrazol-1-yl)-phenyl]-(5H,11H-pyrrolo[2,1-c][1,4]-benzodiazepin-10-yl)-methanone]	454%	69%
Cc1ccn(-c2ccc(C(=O)N3Cc4ccnn4Cc4ccccc43)c(C(F)(F)F)c2)n1 [Example 95, [4-(3-Methylpyrazol-1-yl)-2-trifluoromethylphenyl]-[5H,11H-pyrazolo[5,1-c]-[1,4]benzodiazepin-10-yl)-methanone]	300%	68%
Cc1ccn(-c2ccc(C(=O)O)c(Cl)c2)n1 [Example 97, 2-Chloro-4-(3-methyl-1H-pyrazol-1-yl)-benzoic acid]	106%	3%
O=C(c1ccc(-n2cccn2)nc1Cl)N1Cc2cccn2Cc2ccccc21 [Example 99, (2-Chloro-6-pyrazol-1-yl-pyridin-3-yl)-(5H,11H-pyrrolo[2,1-c][1,4]benzodiazepin-10-yl)-methanone]	205%	43%
Cc1ccn(-c2ccc(C(=O)N3Cc4cccn4Cc4ccccc43)c(Cl)n2)n1 [Example 100, [2-Chloro-6-(3-methylpyrazol-1-yl)-pyridin-3-yl]-(5H,11H-pyrrolo[2,1-c] [1,4]benzodiazepin-10-yl)-methanone]	248%	24%
Cc1cnn(-c2ccc(C(=O)N3Cc4cccn4Cc4ccccc43)c(Cl)n2)c1 [Example 101, [2-Chloro-6-(4-methylpyrazol-1-yl)-pyridin-3-yl](5H,11H-pyrrolo[2,1-c] [1,4]benzodiazepin-10-yl)-methanone]	376%	76%
